Where two headings read alike, the source gives them in different places.
Assays:
kidneys of Wistar rats = settings: cited from earlier work
participants [1] = assay: Systolic blood pressure, crossover vs caffeine; type: in vivo, human
From the text: (§1) All supplements were orally ingested with 8 fluid ounces of cold tap water.

participants [2] = assay: Diastolic blood pressure, crossover vs caffeine; type: in vivo, human
Procedure: All supplements were orally ingested with 8 fluid ounces of cold tap water. Resting Heart Rate, Systolic and Diastolic Blood Pressure was measured at baseline, 30, 60, 90, 120 and 180 minutes after ingestion.

participants [3] = assay: Respiratory quotient, placebo-controlled crossover; type: in vivo, human
Procedure: All supplements were orally ingested with 8 fluid ounces of cold tap water. The order of administration for all interventions was randomized using a random allocation software to ensure randomization and to avoid order effects. After ingestion, participants completed all assessments in an identical fashion 30, 60, 90, 120, and 180 minutes after ingestion of their assigned supplement. All study visits took place between 0600-1000 hours. At least 72 hours of rest will take place between each condition.
The lower the RQ, the more fat that is being oxidized for body energy needs. The closer to 1.0 the more carbohydrate is being burned for energy needs. If numbers are lower more fat is being oxidized.

participants [4] = assay: Anxiety by Visual Analog Scale; type: in vivo, human
Procedure: All supplements were orally ingested with 8 fluid ounces of cold tap water. Anxiety was measured by Visual Analog Scale (VAS) at baseline, 30, 60, 90, 120 and 180 minutes after ingestion.

participants [5] = assay: Resting heart rate, crossover vs caffeine; type: in vivo, human
From the text: as §1

[6] = Person one, time 0, 200 mg oral
[7] = Person two, time 0, 200 mg oral

SMILES: Cn1c(=O)[nH]c(=O)c2[nH]cnc21 [3-methylxanthine]
- serum urea (kidneys of Wistar rats; 100 mg kg^−1, after 16 days): Elevated values of serum urea were found
- Tubular necrosis (kidneys of Wistar rats; 100 mg kg^−1 per day oral, after 16 days): Tubular necrosis was noticed
- serum urea (kidneys of Wistar rats; 200 mg kg^−1, after 1 day): Elevated values of serum urea were found
- serum creatinine (kidneys of Wistar rats; 200 mg kg^−1, after 8 days): Elevated values of serum creatinine were detected
- Tubular necrosis (kidneys of Wistar rats; 200 mg kg^−1 per day oral, after 8 days): Tubular necrosis was noticed
- overall renal outcome (kidneys of Wistar rats; 50-200 mg per kg per day, 1-16 days): dose- and time-related renal failure

SMILES: Cn1c(=O)c2c(ncn2C)n(C)c1=O [caffeine, reference compound]
- Systolic Blood Pressure MEAN (30-180) (participants [1]; Person one): 130.0 mm Hg
- Systolic Blood Pressure MEAN (30-180) (participants [1]; Person two): 119.6 mm Hg
- Diastolic Blood Pressure MEAN (30-180) (participants [2]; Average): 80.2 mm Hg
- Diastolic Blood Pressure Mean Δ from 0 (participants [2]; Average, listed as CA): 20.3%
- Diastolic Blood Pressure MEAN (30-180) (participants [2]; Person one): 78.6 mm Hg
- Diastolic Blood Pressure Mean Δ from 0 (participants [2]; Person one): +18.6 mm Hg
- Diastolic Blood Pressure (participants [2]; Person one, 30 min): 77 mm Hg
- Diastolic Blood Pressure (participants [2]; Person one, 60 min): 80 mm Hg
- Diastolic Blood Pressure (participants [2]; Person one, 90 min): 83 mm Hg
- Diastolic Blood Pressure (participants [2]; Person one, 120 min): 77 mm Hg
- Diastolic Blood Pressure (participants [2]; Person one, 180 min): 76 mm Hg
- Diastolic Blood Pressure (participants [2]; [6]): 60 mm Hg
- Diastolic Blood Pressure MEAN (30-180) (participants [2]; Person two): 81.8 mm Hg
- Diastolic Blood Pressure Mean Δ from 0 (participants [2]; Person two): +8.8 mm Hg
- Diastolic Blood Pressure (participants [2]; Person two, 30 min): 77 mm Hg
- Diastolic Blood Pressure (participants [2]; Person two, 60 min): 96 mm Hg
- Diastolic Blood Pressure (participants [2]; Person two, 90 min): 84 mm Hg
- Diastolic Blood Pressure (participants [2]; Person two, 120 min): 75 mm Hg
- Diastolic Blood Pressure (participants [2]; Person two, 180 min): 77 mm Hg
- Diastolic Blood Pressure (participants [2]; [7]): 73 mm Hg
- Respiratory Quotient MEAN (30-180) (participants [3]; Average): 0.701
- Respiratory Quotient MEAN (30-180) (participants [3]; Person one): 0.704
- Respiratory Quotient (participants [3]; Person one, 30 min after ingestion): 0.70
- Respiratory Quotient (participants [3]; Person one, 60 min): 0.65
- Respiratory Quotient (participants [3]; Person one, 90 min): 0.70
- Respiratory Quotient (participants [3]; Person one, 120 min): 0.74
- Respiratory Quotient (participants [3]; Person one, 180 min): 0.73
- Respiratory Quotient (participants [3]; [6]): 0.68
- Respiratory Quotient MEAN (30-180) (participants [3]; Person two): 0.698
- Respiratory Quotient (participants [3]; Person two, 30 min): 0.70
- Respiratory Quotient (participants [3]; Person two, 60 min): 0.71
- Respiratory Quotient (participants [3]; Person two, 90 min): 0.71
- Respiratory Quotient (participants [3]; Person two, 120 min): 0.71
- Respiratory Quotient (participants [3]; Person two, 180 min): 0.66
- Respiratory Quotient (participants [3]; [7]): 0.76
- Anxiety (VAS) MEAN (30-180) (participants [4]; Average): 74.4
- Anxiety (VAS) Mean Δ from 0 (participants [4]; Average, listed as CA): 65%
- Anxiety (VAS) MEAN (30-180) (participants [4]; Person one): 74.6
- Anxiety (VAS) Mean Δ from 0 (participants [4]; Person one): +44.6
- Anxiety (Visual Analog Scale) (participants [4]; Person one, 30 min): 61
- Anxiety (Visual Analog Scale) (participants [4]; Person one, 60 min): 80
- Anxiety (Visual Analog Scale) (participants [4]; Person one, 90 min): 80
- Anxiety (Visual Analog Scale) (participants [4]; Person one, 120 min): 71
- Anxiety (Visual Analog Scale) (participants [4]; Person one, 180 min): 81
- Anxiety (Visual Analog Scale) (participants [4]; [6]): 30
- Anxiety (VAS) MEAN (30-180) (participants [4]; Person two): 74.2
- Anxiety (VAS) Mean Δ from 0 (participants [4]; Person two): +14.2
- Anxiety (Visual Analog Scale) (participants [4]; Person two, 30 min): 70
- Anxiety (Visual Analog Scale) (participants [4]; Person two, 60 min): 75
- Anxiety (Visual Analog Scale) (participants [4]; Person two, 90 min): 76
- Anxiety (Visual Analog Scale) (participants [4]; Person two, 120 min): 75
- Anxiety (Visual Analog Scale) (participants [4]; Person two, 180 min): 75
- Anxiety (Visual Analog Scale) (participants [4]; [7]): 60
- Resting Heart Rate Mean Δ from 0 (participants [5]; Average, listed as CA): 10%
- Resting Heart Rate Mean Δ from 0 (participants [5]; Person one): +6.2 bpm
- Resting Heart Rate (participants [5]; Person one, 30 min): 64 bpm
- Resting Heart Rate (participants [5]; Person one, 60 min): 56 bpm
- Resting Heart Rate (participants [5]; Person one, 90 min): 51 bpm
- Resting Heart Rate (participants [5]; Person one, 120 min): 61 bpm
- Resting Heart Rate (participants [5]; Person one, 180 min): 44 bpm
- Resting Heart Rate (participants [5]; [6]): 49 bpm
- Resting Heart Rate Mean Δ from 0 (participants [5]; Person two): +4.6 bpm
- Resting Heart Rate (participants [5]; Person two, 30 min): 65 bpm
- Resting Heart Rate (participants [5]; Person two, 60 min): 62 bpm
- Resting Heart Rate (participants [5]; Person two, 90 min): 62 bpm
- Resting Heart Rate (participants [5]; Person two, 120 min): 64 bpm
- Resting Heart Rate (participants [5]; Person two, 180 min): 69 bpm
- Resting Heart Rate (participants [5]; [7]): 59 bpm

From patent US12390470B2, “1-methylxanthine-based bioactive composition and method of use thereof” (Ingenious Ingredients, LP, priority 2021, dated 2025)
